The target of experiment [1] is DNA dC->dU-editing enzyme APOBEC-3G (Homo sapiens, UniProt Q9HC16). Format: functional.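 Also: Dose-response counterscreen measuring inhibition of APOBEC3G DNA deaminase activity, run while confirming APOBEC3A inhibitors.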
Experiment [2] in a line: cytotoxicity in KRAS-transformed pancreatic duct cells, primary screen, cell-based, fluorescence, HTS (AID 431).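 Also: cell line used: HPDE-C7K.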 In kind it is functional. The settings on record: Homo sapiens.
Experiment [3] addresses T1, Estrogen receptor beta (Homo sapiens, UniProt Q92731). Description: ERβ–SRC-3 coactivator interaction inhibitors, confirmation, orthogonal assay, biochemical, ELISA, streptavidin-HRP readout (AID 1060).
The next experiment concerns the target T2, Protein Tat (Human immunodeficiency virus type 1 group M subtype B (isolate HXB2)(HIV-1), UniProt P04608).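 Also: tat binding to TAR RNA read out by fluorescence polarization.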
T2 sequence (P04608 whole entry): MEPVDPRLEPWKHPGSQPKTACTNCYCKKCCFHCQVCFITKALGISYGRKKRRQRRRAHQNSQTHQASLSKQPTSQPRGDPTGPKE
Format: functional.

The target of experiment [4] is T1, Estrogen receptor beta.
A further experiment addresses T3, Bcl-2-like protein 10 (Homo sapiens, UniProt Q9HD36).
T3 sequence (Q9HD36 whole entry): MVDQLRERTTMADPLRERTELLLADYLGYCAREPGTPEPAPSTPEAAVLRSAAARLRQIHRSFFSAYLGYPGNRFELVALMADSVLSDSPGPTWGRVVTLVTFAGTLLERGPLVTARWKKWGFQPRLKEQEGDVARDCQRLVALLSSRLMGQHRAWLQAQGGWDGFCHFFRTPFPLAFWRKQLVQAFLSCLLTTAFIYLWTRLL
Put plainly: displacers of TR3 peptide from Bcl-B, primary screen, selectivity assay for Bfl-1 inhibitor project, biochemical, fluorescence polarization, FITC-TR3 peptide (AID 748).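 Also: fluorescence polarization from a fluorescein-labelled TR3 peptide binding purified Bcl-B.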

Experiment [5] can be described thus: cytotoxicity in HPDE-C7 cells, cell-based, fluorescence, HTS (AID 430). Format: functional. The note with it: Homo sapiens.
A further experiment deals with T4, Estrogen receptor (Homo sapiens, UniProt P03372).
T4 sequence (P03372 whole entry): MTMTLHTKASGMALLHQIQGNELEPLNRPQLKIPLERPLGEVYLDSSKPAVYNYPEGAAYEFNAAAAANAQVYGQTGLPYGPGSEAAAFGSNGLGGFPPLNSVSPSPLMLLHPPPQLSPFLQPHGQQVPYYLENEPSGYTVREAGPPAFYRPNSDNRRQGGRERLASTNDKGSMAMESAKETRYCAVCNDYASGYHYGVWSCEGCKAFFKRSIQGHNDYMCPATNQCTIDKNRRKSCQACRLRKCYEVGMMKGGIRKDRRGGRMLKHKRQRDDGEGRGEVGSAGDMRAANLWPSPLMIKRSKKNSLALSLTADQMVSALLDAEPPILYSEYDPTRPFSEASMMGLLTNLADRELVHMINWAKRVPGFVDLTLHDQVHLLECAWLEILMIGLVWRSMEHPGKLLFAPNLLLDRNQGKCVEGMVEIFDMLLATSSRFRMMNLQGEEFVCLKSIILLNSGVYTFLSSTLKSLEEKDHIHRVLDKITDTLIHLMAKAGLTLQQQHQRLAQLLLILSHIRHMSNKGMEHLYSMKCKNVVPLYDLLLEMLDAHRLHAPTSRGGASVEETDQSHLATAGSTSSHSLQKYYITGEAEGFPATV

Experiment [6] addresses DNA dC->dU-editing enzyme APOBEC-3A (Homo sapiens, UniProt P31941). Put plainly: Dose Response confirmation of small molecule APOBEC3A DNA Deaminase Inhibitors via a fluorescence-based single-stranded DNA deaminase assay. [Related pubchem assays (depositor defined):AID493011, AID493024]. In kind it is functional.
A further experiment deals with Coagulation factor XII (Homo sapiens, UniProt P00748). Format: functional.
Coagulation factor XII, sequence (P00748 20-372 limits assumed): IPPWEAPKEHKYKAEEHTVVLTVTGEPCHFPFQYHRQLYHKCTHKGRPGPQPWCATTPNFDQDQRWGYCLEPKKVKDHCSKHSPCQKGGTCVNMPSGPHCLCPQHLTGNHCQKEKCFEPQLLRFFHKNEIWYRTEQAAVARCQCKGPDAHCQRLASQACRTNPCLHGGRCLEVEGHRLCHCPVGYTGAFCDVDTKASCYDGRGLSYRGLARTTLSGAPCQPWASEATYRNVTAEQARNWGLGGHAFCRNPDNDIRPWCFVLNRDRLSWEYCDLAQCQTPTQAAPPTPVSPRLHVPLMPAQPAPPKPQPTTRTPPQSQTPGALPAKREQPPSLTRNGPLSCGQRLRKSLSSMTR
Coagulation factor XII, sequence (P00748 373-615 limits assumed): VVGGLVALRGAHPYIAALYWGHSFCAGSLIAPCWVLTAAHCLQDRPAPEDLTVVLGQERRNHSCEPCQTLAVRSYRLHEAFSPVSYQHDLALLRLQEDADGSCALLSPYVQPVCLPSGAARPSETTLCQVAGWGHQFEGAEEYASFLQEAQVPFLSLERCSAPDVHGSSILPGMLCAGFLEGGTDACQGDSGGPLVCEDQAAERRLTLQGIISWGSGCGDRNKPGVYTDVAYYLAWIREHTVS
For the next experiment, the target named is Albumin (Bos taurus, UniProt P02769). Put plainly: Counterscreen for inhibitors of T-cell receptor (TCR)-CD3 interaction: Fluorescence-based biochemical high throughput dose response assay to identify inhibitors of T-cell receptor (TCR)-CD3 interaction using a TAMRA-labeled BSA probe. In kind it is functional.
Experiment [7] concerns the target T5, Dual specificity protein phosphatase 6 (Rattus norvegicus, UniProt Q64346).
T5 sequence (Q64346 whole entry): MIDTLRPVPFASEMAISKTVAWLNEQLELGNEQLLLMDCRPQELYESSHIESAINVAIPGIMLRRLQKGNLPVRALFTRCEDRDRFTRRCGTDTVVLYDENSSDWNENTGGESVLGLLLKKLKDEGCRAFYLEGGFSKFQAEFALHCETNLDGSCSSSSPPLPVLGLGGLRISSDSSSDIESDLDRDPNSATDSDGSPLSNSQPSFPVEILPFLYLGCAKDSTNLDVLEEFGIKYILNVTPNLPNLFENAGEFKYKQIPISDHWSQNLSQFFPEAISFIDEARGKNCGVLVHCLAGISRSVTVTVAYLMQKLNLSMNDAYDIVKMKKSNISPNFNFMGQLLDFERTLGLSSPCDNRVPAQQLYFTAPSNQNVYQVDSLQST
Put plainly: MKP-3 phosphatase inhibitors, primary screen, biochemical, rat enzyme, in vitro (AID 425).

In experiment [8] the target is T6, Dual specificity protein phosphatase 3 (Homo sapiens, UniProt P51452). Put plainly: VHR1 phosphatase inhibitors, primary screen, biochemical, absorbance, uHTS (AID 1654).
T6 sequence (P51452 whole entry): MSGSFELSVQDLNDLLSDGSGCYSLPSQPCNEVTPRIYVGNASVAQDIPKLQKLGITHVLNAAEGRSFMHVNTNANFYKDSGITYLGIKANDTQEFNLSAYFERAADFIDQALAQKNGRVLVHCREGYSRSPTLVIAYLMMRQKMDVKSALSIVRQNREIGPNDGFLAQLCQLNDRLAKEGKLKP
For experiment [9], the target named is T7, Voltage-gated N-type calcium channel alpha-1B subunit/Amyloid beta A4 precursor protein-binding family A member 1 (Homo sapiens, UniProt Q00975+Q02410). Format: protein assay.
T7 sequence (Q00975 whole entry): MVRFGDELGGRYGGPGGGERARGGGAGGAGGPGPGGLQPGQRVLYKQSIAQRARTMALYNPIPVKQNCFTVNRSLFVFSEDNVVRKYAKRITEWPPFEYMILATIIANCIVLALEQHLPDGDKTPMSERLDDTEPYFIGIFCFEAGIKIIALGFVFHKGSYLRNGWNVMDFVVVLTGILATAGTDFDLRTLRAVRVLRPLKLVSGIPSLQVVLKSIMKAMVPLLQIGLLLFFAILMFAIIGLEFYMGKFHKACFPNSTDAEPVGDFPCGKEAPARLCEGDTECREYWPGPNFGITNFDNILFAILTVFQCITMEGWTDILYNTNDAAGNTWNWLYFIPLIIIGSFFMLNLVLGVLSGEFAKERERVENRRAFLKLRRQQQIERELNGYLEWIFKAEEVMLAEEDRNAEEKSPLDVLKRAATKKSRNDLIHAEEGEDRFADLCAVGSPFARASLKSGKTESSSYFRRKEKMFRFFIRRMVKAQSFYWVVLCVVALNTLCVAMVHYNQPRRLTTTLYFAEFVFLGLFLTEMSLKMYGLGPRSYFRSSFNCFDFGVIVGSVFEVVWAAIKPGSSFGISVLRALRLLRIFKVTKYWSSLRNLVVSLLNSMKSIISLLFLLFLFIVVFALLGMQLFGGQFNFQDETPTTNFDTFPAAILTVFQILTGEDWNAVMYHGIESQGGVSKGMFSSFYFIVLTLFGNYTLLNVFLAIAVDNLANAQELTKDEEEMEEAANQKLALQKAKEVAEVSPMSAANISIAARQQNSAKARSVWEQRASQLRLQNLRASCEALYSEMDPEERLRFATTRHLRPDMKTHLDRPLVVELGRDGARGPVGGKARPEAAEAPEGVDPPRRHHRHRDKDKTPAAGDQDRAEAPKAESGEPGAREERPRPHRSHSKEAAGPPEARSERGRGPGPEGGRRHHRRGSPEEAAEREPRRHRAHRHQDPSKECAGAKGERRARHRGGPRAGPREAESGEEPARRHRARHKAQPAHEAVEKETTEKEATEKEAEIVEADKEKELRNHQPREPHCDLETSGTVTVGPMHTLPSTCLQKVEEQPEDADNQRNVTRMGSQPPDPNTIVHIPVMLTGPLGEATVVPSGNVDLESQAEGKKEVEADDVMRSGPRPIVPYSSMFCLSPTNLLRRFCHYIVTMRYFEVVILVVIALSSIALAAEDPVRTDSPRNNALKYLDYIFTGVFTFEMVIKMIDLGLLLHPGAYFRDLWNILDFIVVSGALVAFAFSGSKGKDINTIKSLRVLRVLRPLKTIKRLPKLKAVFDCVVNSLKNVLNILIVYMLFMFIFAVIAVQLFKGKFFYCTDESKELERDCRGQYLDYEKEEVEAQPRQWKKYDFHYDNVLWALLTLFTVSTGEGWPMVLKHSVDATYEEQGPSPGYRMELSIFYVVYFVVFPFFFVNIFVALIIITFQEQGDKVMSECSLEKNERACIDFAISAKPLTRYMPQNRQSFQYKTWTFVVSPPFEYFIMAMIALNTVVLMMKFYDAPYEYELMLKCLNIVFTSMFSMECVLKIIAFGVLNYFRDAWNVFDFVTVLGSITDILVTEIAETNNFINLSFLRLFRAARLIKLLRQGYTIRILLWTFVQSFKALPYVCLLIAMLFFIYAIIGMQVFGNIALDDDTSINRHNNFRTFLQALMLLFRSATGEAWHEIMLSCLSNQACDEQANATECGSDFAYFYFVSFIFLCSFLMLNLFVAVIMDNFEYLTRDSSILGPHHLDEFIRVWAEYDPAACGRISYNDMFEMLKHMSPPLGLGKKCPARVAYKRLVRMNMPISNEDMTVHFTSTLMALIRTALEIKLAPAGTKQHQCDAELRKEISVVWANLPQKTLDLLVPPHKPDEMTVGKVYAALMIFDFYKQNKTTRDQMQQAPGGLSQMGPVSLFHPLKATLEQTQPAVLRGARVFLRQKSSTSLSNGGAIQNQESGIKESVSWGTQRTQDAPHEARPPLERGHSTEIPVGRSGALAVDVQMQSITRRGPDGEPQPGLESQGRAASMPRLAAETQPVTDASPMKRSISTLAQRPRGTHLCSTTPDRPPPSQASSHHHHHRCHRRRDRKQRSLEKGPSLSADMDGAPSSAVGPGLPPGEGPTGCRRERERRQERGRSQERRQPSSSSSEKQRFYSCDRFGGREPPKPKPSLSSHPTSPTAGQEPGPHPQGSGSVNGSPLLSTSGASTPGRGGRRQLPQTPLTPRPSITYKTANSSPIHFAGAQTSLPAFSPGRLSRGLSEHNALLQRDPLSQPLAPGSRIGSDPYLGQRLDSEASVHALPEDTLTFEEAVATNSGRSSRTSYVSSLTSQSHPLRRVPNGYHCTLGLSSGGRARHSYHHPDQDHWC
T7 sequence (Q02410 whole entry): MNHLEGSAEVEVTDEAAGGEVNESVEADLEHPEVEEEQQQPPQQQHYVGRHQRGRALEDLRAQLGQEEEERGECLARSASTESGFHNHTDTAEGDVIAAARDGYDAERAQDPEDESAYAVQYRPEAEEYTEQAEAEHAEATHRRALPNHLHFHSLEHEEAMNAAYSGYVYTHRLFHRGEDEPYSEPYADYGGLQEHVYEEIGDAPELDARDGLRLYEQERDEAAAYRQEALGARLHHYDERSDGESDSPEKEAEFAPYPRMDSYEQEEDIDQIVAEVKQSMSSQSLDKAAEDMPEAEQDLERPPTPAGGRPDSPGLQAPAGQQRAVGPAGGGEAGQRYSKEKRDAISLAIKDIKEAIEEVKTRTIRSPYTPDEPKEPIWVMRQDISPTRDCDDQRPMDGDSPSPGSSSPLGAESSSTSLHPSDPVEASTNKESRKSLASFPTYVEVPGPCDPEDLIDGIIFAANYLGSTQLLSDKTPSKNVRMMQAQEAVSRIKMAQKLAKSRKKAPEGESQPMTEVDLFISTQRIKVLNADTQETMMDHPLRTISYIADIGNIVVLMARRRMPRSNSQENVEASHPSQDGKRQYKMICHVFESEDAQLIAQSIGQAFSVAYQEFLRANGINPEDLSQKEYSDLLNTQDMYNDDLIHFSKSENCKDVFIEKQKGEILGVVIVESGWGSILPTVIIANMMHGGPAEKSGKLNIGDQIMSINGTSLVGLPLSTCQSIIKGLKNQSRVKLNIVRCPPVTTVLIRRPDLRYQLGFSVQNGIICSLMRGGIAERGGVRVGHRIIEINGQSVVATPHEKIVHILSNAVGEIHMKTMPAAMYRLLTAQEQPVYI
The target of experiment [10] is T7, Voltage-gated N-type calcium channel alpha-1B subunit/Amyloid beta A4 precursor protein-binding family A member 1. Format: protein assay. The source holds these as a separate data set.
The target of experiment [11] is T6, Dual specificity protein phosphatase 3. Put plainly: VHR1 phosphatase inhibitors, biochemical (AID 1878).
Experiment [12] has as its target T8, Tyrosine-protein phosphatase non-receptor type 22 (Homo sapiens, UniProt Q9Y2R2).
T8 sequence (Q9Y2R2 whole entry): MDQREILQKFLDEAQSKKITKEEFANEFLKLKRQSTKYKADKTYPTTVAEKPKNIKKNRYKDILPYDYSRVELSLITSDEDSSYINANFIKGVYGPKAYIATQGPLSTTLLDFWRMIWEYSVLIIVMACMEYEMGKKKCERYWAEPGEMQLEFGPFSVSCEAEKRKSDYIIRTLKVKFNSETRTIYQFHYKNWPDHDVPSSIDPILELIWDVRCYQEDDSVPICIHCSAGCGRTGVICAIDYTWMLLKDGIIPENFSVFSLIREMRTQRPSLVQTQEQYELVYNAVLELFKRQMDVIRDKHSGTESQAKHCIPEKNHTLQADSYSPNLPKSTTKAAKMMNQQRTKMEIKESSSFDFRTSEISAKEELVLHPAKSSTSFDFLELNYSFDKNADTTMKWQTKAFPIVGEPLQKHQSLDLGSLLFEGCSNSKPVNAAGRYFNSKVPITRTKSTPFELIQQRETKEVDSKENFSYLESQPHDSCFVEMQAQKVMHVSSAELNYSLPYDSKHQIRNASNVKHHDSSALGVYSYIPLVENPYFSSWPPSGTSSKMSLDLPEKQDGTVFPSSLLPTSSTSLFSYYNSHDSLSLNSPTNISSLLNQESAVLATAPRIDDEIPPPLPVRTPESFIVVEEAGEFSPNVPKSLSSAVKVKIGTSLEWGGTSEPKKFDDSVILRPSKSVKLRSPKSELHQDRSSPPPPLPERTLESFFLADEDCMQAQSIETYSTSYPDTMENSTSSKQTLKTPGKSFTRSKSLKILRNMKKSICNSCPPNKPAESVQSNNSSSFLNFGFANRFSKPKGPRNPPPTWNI
In kind it is functional.

The target in experiment [13] is T9, Tyrosine-protein phosphatase non-receptor type 7 (Homo sapiens, UniProt P35236).
T9 sequence (P35236 whole entry): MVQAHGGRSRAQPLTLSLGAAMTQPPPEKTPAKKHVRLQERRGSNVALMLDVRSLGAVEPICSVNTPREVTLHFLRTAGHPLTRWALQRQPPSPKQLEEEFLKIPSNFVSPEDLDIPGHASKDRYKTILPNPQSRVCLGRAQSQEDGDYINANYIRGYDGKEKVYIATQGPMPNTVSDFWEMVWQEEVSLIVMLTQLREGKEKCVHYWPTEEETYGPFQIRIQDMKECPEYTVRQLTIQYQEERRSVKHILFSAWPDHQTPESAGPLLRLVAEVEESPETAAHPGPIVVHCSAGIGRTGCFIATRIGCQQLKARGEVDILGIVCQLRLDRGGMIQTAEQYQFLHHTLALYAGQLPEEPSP
Format: functional.

The target in experiment [14] is T8, Tyrosine-protein phosphatase non-receptor type 22. Format: functional. This is another data set of the same source.
The next experiment concerns Streptococcus. Description: Group A Streptococcus viability loss, dose response, counter-screen for streptokinase expression inhibitor project, luminescence, BacTiterGlo (AID 1915).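 Also: potency for reduction of bacterial viability or growth.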 Format: functional, organism-based.
In the next experiment the target is T10, Streptokinase A (Streptococcus pyogenes serotype M1, UniProt P10520).
T10 sequence (P10520 whole entry): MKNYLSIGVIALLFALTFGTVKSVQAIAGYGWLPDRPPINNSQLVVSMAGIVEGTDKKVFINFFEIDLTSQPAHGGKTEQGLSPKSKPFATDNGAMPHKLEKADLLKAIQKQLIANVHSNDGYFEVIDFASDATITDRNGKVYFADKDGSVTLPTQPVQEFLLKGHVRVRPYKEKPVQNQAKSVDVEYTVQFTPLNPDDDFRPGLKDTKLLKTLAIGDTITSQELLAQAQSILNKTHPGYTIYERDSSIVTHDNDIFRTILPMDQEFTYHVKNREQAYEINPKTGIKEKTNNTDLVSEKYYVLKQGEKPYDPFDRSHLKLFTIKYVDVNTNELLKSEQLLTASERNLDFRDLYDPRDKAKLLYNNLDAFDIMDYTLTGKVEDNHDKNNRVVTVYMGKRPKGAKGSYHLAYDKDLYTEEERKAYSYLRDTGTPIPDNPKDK
Put plainly: S. pyogenes streptokinase expression inhibitors, potency, dose response, plasminogen activation absorbance, OD405 (AID 1914).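 Also: secreted streptokinase activity via plasminogen activation per viability signal from cell pellet.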 Format: functional, Streptococcus pyogenes M1 GAS.

The subject of experiment [15] is Streptococcus sp. 'group A'. Put plainly: growth inhibition of control SK(-) GAS strain, dose response, counter-screen for streptokinase expression inhibitor project, luminescence, kanamycin, BacTiterGlo, confirmation (AID 1900). In kind it is functional, organism-based.
For experiment [16], the target named is Eukaryotic translation initiation factor 4H (Homo sapiens, UniProt Q15056). Put plainly: human eIF4H binding inhibitors, primary screen, translation initiation inhibitor project, biochemical, uHTS, fluorescence polarization (AID 2012).
The target of experiment [17] is Polyadenylate-binding protein 1 (Homo sapiens, UniProt P11940). Description: PABP poly(A) RNA binding inhibitors, primary screen, biochemical, fluorescence polarization, uHTS (AID 2014).

The source of these data is ChEMBL document CHEMBL1201862, “PubChem BioAssay data set” (2004).

The source made the active and inactive calls.

DNA dC->dU-editing enzyme APOBEC-3G, sequence (Q9HC16 whole entry): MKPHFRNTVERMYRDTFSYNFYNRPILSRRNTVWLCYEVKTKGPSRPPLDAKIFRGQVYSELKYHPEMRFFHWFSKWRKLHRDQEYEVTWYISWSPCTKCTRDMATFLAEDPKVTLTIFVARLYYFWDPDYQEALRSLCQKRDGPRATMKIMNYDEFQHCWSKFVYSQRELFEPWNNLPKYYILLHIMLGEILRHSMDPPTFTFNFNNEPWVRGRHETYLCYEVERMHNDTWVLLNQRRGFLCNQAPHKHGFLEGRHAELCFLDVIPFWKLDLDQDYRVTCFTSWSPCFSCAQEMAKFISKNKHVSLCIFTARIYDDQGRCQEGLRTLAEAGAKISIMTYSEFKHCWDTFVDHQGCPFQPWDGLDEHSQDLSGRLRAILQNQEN
T1 sequence (Q92731 whole entry): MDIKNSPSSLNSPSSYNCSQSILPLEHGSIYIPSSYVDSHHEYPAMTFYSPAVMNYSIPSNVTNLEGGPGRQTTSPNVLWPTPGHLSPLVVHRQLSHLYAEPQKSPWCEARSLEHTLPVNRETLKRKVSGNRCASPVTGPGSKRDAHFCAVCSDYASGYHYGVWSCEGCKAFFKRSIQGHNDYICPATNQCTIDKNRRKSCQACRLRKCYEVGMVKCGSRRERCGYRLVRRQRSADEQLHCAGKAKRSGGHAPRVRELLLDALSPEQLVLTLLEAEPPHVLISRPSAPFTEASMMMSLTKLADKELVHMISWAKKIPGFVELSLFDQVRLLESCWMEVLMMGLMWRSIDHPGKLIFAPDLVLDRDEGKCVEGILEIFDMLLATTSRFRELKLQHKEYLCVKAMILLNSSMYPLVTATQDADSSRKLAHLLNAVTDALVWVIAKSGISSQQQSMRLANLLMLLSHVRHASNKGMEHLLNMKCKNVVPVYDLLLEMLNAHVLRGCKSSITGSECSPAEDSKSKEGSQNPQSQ

Regarding `COc1ccc2c(c1)c(=O)oc1cc(OCC(=O)N3CCC(C)CC3)ccc12`, the IC50 was > 100 µM (inactive) in experiment [1]; 14.3 µM (not active) at Estrogen receptor beta [3]; > 100 µM (active) at Protein Tat; 5.31 µM (active) at Estrogen receptor beta [4]; 31.8 µM (active) on Bcl-2-like protein 10; 11.7 µM (active) at Estrogen receptor. For the same compound, the IC50 in [6] is 21.6 µM (active). The EC50 in experiment [2] and in experiment [5] was > 20 µM (not active) in each case.

Take `COc1cccc(NC(C(=O)Nc2cccc(C(C)=O)c2)c2ccccc2)c1` (configuration not stated): on Coagulation factor XII, the IC50 was > 50 µM (inactive).

On to `Cc1cc(=O)oc2cc(OCC(=O)N/N=C/c3cc([N+](=O)[O-])ccc3O)ccc12`, for which the IC50 on Albumin is > 94.1 µM (inactive); in experiment [7], 24 µM (active); in [8], 4.25 µM (active); in experiment [9], > 50 µM (inactive); in experiment [10], > 56.8 µM (not active); in experiment [11], 2.6 µM (active).

For the compound `CCNS(=O)(=O)c1cc(S(C)(=O)=O)ccc1Cl`, the IC50 in experiment [12], in [13] and in [14] was > 79.4 µM (inactive) in each case.

Regarding `O=C(Nc1ncc(Cc2ccccc2)s1)c1cccs1`, the EC50 was > 150 µM (not active) in the experiment with Streptococcus, > 150 µM (not active) at Streptokinase A and 15.6 µM (active) in experiment [15]. Moreover, the IC50 at Coagulation factor XII is > 50 µM (inactive).

`CCCn1c2c(c(=N)c3c1CCC3)CCC2`: the IC50 was 2.66 µM (active) in experiment [1], > 100 µM (inactive) in [16], 4.08 µM (active) in [17] and 2.76 µM (active) in [6].
